# Assay results taken from US6358885B1, “Substituted phenylheterocyclic herbicides” (Mississippi State University, priority 1992, dated 2002).
# Experiments:
# chickweed = assay: Test C preemergence/postemergence greenhouse plant response rating 0 to 100; format: in vivo, Stellaria media; conditions: POSTEMERGENCE; for Plant response rating, Chickweed: 0 to 100 scale
# Outline: (§1)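 Compounds in non-phytotoxic solvent applied preemergence to sandy loam one day after planting, postemergence at the 1–4 leaf stage, or to ~2.5 cm floodwater over silt loam.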
# blackgrass = assay: Test B preemergence/postemergence greenhouse plant response rating 0 to 10; format: in vivo, Alopecurus myosuroides; conditions: 0 to 10 scale
# Outline: (§2)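 Both application timings were run together: seeds got compound preemergence, and established seedlings (two to eighteen cm) got it postemergence. Non-phytotoxic solvent carried the chemical. Ratings are visual, versus controls, at twelve to sixteen days.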
# crabgrass = assay: as above; format: in vivo, Digitaria spp.; conditions: 0 to 10 scale
# Outline: as §2
# lambsquarters [1] = assay: as above; format: in vivo, Chenopodium album; conditions: 0 to 10 scale
# Outline: as §2
# ryegrass = assay: Test C preemergence/postemergence greenhouse plant response rating 0 to 100; format: in vivo, Lolium multiflorum; conditions: POSTEMERGENCE; for Plant response rating Ryegrass: 0 to 100 scale
# Outline: as §1
# purple nutsedge = assay: Test B preemergence/postemergence greenhouse plant response rating 0 to 10; format: in vivo, Cyperus rotundus; conditions: 0 to 10 scale
# Outline: as §2
# soybean [2] = assay: Test C preemergence/postemergence greenhouse plant response rating 0 to 100; format: in vivo, Glycine max; conditions: POSTEMERGENCE; for Plant response rating, Soybean: 0 to 100 scale
# Outline: as §1
# wild buckwheat = assay: as above; format: in vivo, Polygonum convolvulus; conditions: POSTEMERGENCE; for Plant response rating, Wild buckwheat: 0 to 100 scale
# Outline: as §1
# lambsquarters [3] = assay: as above; format: in vivo, Chenopodium album; conditions: POSTEMERGENCE; for Plant response rating Lambsquarters: 0 to 100 scale
# Outline: as §1
# rape = assay: Test B preemergence/postemergence greenhouse plant response rating 0 to 10; format: in vivo, Brassica napus; conditions: 0 to 10 scale
# Outline: as §2
# barley [4] = assay: as above; format: in vivo, Hordeum vulgare; conditions: 0 to 10 scale
# Outline: as §2
# sugar beet = assay: Test C preemergence/postemergence greenhouse plant response rating 0 to 100; format: in vivo, Beta vulgaris; conditions: POSTEMERGENCE; for Plant response rating, Sugar beet: 0 to 100 scale
# Outline: as §1
# pigweed = assay: as above; format: in vivo, Amaranthusretroflexus; conditions: POSTEMERGENCE; for Plant response rating Pigweed: 0 to 100 scale
# Outline: as §1
# velvetleaf = assay: Test B preemergence/postemergence greenhouse plant response rating 0 to 10; format: in vivo, Abutilon theophrasti; conditions: 0 to 10 scale
# Outline: as §2
# barley [5] = assay: Test C preemergence/postemergence greenhouse plant response rating 0 to 100; format: in vivo, Hordeum vulgare; conditions: POSTEMERGENCE; for Plant response rating Barley Igri: 0 to 100 scale
# Outline: as §1
# cheatgrass = assay: Test B preemergence/postemergence greenhouse plant response rating 0 to 10; format: in vivo, Bromus secalinus; conditions: 0 to 10 scale
# Outline: as §2
# giant foxtail = assay: as above; format: in vivo, Setaria faberii; conditions: 0 to 10 scale
# Outline: as §2
# soybean [6] = assay: as above; format: in vivo, Glycine max; conditions: 0 to 10 scale
# Outline: as §2
compound,measurement,setting,value
C#CC(C)N1C(=O)COc2cc(F)c(-c3nn4c(c3Cl)CCCC4)cc21 (centres unmarked) [Compound 50],"Plant response rating, Chickweed",chickweed; 62 g/ha,100
same,"Plant response rating, Chickweed",chickweed; 250 g/ha,100
same,"Plant response rating (0 to 100), Chickweed",chickweed; Rate 1 g/ha,20
same,"Plant response rating (0 to 100), Chickweed",chickweed; Rate 4 g/ha,30
same,"Plant response rating (0 to 100), Chickweed",chickweed; Rate 16 g/ha,80
same,"Plant response rating, Blackgrass","blackgrass; POSTEMERGENCE, Rate 10 g/ha",6
same,"Plant response rating, Blackgrass","blackgrass; POSTEMERGENCE, Rate 50 g/ha",6
same,"Plant response rating, Blackgrass","blackgrass; PREEMERGENCE, Rate 10 g/ha",4
same,"Plant response rating, Blackgrass","blackgrass; PREEMERGENCE, Rate 50 g/ha",6
same,"Plant response rating, Crabgrass","crabgrass; POSTEMERGENCE, Rate 10 g/ha",3
same,"Plant response rating, Crabgrass","crabgrass; POSTEMERGENCE, Rate 50 g/ha",4
same,"Plant response rating, Crabgrass","crabgrass; PREEMERGENCE, Rate 10 g/ha",0
same,"Plant response rating, Crabgrass","crabgrass; PREEMERGENCE, Rate 50 g/ha",0
same,"Plant response rating, Lambsquarter","lambsquarters [1]; POSTEMERGENCE, Rate 10 g/ha",9
same,"Plant response rating, Lambsquarter","lambsquarters [1]; POSTEMERGENCE, Rate 50 g/ha",10
same,"Plant response rating, Lambsquarter","lambsquarters [1]; PREEMERGENCE, Rate 50 g/ha",10
same,Plant response rating Ryegrass,ryegrass; 62 g/ha,40
same,Plant response rating Ryegrass,ryegrass; 250 g/ha,50
same,"Plant response rating (0 to 100), Ryegrass",ryegrass; Rate 1 g/ha,0
same,"Plant response rating (0 to 100), Ryegrass",ryegrass; Rate 4 g/ha,20
same,"Plant response rating (0 to 100), Ryegrass",ryegrass; Rate 16 g/ha,30
same,"Plant response rating, Nutsedge","purple nutsedge; POSTEMERGENCE, Rate 10 g/ha",4
same,"Plant response rating, Nutsedge","purple nutsedge; POSTEMERGENCE, Rate 50 g/ha",5
same,"Plant response rating, Nutsedge","purple nutsedge; PREEMERGENCE, Rate 50 g/ha",0
same,"Plant response rating, Soybean",soybean [2]; 62 g/ha,90
same,"Plant response rating, Soybean",soybean [2]; 250 g/ha,90
same,"Plant response rating (0 to 100), Soybean",soybean [2]; Rate 1 g/ha,40
same,"Plant response rating (0 to 100), Soybean",soybean [2]; Rate 4 g/ha,60
same,"Plant response rating (0 to 100), Soybean",soybean [2]; Rate 16 g/ha,70
same,"Plant response rating, Wild buckwheat",wild buckwheat; 62 g/ha,100
same,"Plant response rating, Wild buckwheat",wild buckwheat; 250 g/ha,100
same,"Plant response rating (0 to 100), Wild buckwheat",wild buckwheat; Rate 1 g/ha,0
same,"Plant response rating (0 to 100), Wild buckwheat",wild buckwheat; Rate 4 g/ha,20
same,"Plant response rating (0 to 100), Wild buckwheat",wild buckwheat; Rate 16 g/ha,80
same,Plant response rating Lambsquarters,lambsquarters [3]; 62 g/ha,100
same,Plant response rating Lambsquarters,lambsquarters [3]; 250 g/ha,100
same,"Plant response rating (0 to 100), Lambsquarters",lambsquarters [3]; Rate 4 g/ha,100
same,"Plant response rating (0 to 100), Lambsquarters",lambsquarters [3]; Rate 16 g/ha,100
same,"Plant response rating, Rape","rape; POSTEMERGENCE, Rate 10 g/ha",9
same,"Plant response rating, Rape","rape; POSTEMERGENCE, Rate 50 g/ha",10
same,"Plant response rating, Rape","rape; PREEMERGENCE, Rate 50 g/ha",8
same,"Plant response rating, Barley","barley [4]; POSTEMERGENCE, Rate 10 g/ha",3
same,"Plant response rating, Barley","barley [4]; POSTEMERGENCE, Rate 50 g/ha",4
same,"Plant response rating, Barley","barley [4]; PREEMERGENCE, Rate 10 g/ha",0
same,"Plant response rating, Barley","barley [4]; PREEMERGENCE, Rate 50 g/ha",0
same,"Plant response rating, Sugar beet",sugar beet; 62 g/ha,100
same,"Plant response rating, Sugar beet",sugar beet; 250 g/ha,100
same,"Plant response rating (0 to 100), Sugar beet",sugar beet; Rate 1 g/ha,20
same,"Plant response rating (0 to 100), Sugar beet",sugar beet; Rate 4 g/ha,100
same,"Plant response rating (0 to 100), Sugar beet",sugar beet; Rate 16 g/ha,100
same,Plant response rating Pigweed,pigweed; 62 g/ha,100
same,Plant response rating Pigweed,pigweed; 250 g/ha,100
same,"Plant response rating (0 to 100), Pigweed",pigweed; Rate 1 g/ha,85
same,"Plant response rating (0 to 100), Pigweed",pigweed; Rate 4 g/ha,100
same,"Plant response rating (0 to 100), Pigweed",pigweed; Rate 16 g/ha,100
same,"Plant response rating, Velvetleaf","velvetleaf; POSTEMERGENCE, Rate 10 g/ha",9
same,"Plant response rating, Velvetleaf","velvetleaf; POSTEMERGENCE, Rate 50 g/ha",10
same,"Plant response rating, Velvetleaf","velvetleaf; PREEMERGENCE, Rate 50 g/ha",0
same,Plant response rating Barley Igri,barley [5]; 62 g/ha,40
same,Plant response rating Barley Igri,barley [5]; 250 g/ha,50
same,"Plant response rating (0 to 100), Barley Igri",barley [5]; Rate 1 g/ha,0
same,"Plant response rating (0 to 100), Barley Igri",barley [5]; Rate 4 g/ha,20
same,"Plant response rating (0 to 100), Barley Igri",barley [5]; Rate 16 g/ha,30
same,"Plant response rating, Cheatgrass","cheatgrass; POSTEMERGENCE, Rate 10 g/ha",5
same,"Plant response rating, Cheatgrass","cheatgrass; POSTEMERGENCE, Rate 50 g/ha",6
same,"Plant response rating, Cheatgrass","cheatgrass; PREEMERGENCE, Rate 10 g/ha",2
same,"Plant response rating, Cheatgrass","cheatgrass; PREEMERGENCE, Rate 50 g/ha",3
same,"Plant response rating, Giant foxtail","giant foxtail; POSTEMERGENCE, Rate 10 g/ha",4
same,"Plant response rating, Giant foxtail","giant foxtail; POSTEMERGENCE, Rate 50 g/ha",4
same,"Plant response rating, Giant foxtail","giant foxtail; PREEMERGENCE, Rate 10 g/ha",0
same,"Plant response rating, Giant foxtail","giant foxtail; PREEMERGENCE, Rate 50 g/ha",3
same,"Plant response rating, Soybean","soybean [6]; POSTEMERGENCE, Rate 10 g/ha",6
same,"Plant response rating, Soybean","soybean [6]; POSTEMERGENCE, Rate 50 g/ha",9
same,"Plant response rating, Soybean","soybean [6]; PREEMERGENCE, Rate 50 g/ha",3
